# Test results published in patent US8153625B2, “Nitrogen-containing heterocyclic compounds and medicinal use thereof” (Ono Pharmaceutical Co., Ltd., priority 2002, dated 2012).
# What was measured:
# [1] = target: T1, CXCR4 (Homo sapiens, UniProt P61073); assay: Inhibition of binding of human 125I-SDF-1 to CEM cells; settings: 125I-SDF-1 binding to human T cell line CEM
# T1 construct: a human T cell line known to express CXCR4 can be employed; endogenous in cells; host or cells: CEM (human T cell line), whole cells
# T1 sequence (P61073 whole entry): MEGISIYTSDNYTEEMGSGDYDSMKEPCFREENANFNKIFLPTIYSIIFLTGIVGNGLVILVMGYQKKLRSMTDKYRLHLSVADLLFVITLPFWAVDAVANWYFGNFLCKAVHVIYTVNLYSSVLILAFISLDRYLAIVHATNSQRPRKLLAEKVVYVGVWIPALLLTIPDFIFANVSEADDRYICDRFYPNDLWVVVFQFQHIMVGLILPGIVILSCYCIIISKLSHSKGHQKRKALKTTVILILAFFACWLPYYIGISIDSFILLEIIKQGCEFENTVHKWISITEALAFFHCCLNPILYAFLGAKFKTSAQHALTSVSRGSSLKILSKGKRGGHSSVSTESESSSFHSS
# From the text: Typically, as an assay for screening for a compound which inhibits the binding between SDF-1 and CXCR4, a system measuring the binding between an I-labeled SDF-1 and a human T cell line known to express CXCR4 can be employed. Since both of a macrophage (R5) HIV and RANTES, MIP- 1 a, MIP-1I3 bind to CCR5, a similar understanding is possible.
# Inhibition of Human SDF-1 with CEM Cell
# In a binding buffer solution (HEPES containing BSA), a human T cell line CEM cell was mixed with a test compound and ^125I-SDF-1 (NEN) and incubated for 60 minutes at […]. The reacted CEM cell was filtered rapidly through a GF/B membrane filter plate (Packard) to effect adsorption, followed by washing three times with PBS, drying and addition of Microscint+20 (Packard).
Compound,IC50 [1] [nM],melting point [°C]
"Cl.Cl.NCCNc1nccc(N2CCCCCC2)n1 [Example 1(41), 2-(2-aminoethylamino)-4-(perhydroazepin-1-yl)pyrimidine dihydrochloride]",200,100 to 102
"c1ccc(CN2CCC(Nc3nccc(N4CCCCCC4)n3)C2)cc1 (stereo not drawn) [Example 4, 2-(1-benzylpyrrolidin-3-ylamino)-4-(perhydroazepin-1-yl)pyrimidine]",150,–
